Test results taken from US20230149362A1, “NEW CAPSULE COMPOSITION FOR PERORAL ADMINISTRATION” (Vicore Pharma AB, priority 2020, published 2023).
In brackets after ≈: the same amount, converted by molar mass. Where two headings read alike, the source gives them in different places.

How the values were obtained:
[1] = Solubility of free C21 in aqueous vehicles (saturated solutions, HPLC); assay type: physicochemical; settings: for solubility at 48 h: thermodynamic from solid, read-out: Concentration (solubility)
Excerpt: Vehicles (with sources) were as follows: sodium chloride (Sigma), ethanol (99.5%, Kemetyl), polyethylene glycols (BASF), phosphate buffered saline (PBS) pH 7.4 (Sigma), buffer solution pH 2.00 (citric acid, sodium hydroxide, hydrogen chloride), buffer solution pH 4.00 (citric acid, sodium hydroxide), buffer solution pH 6.00 (citric acid, sodium hydroxide), buffer solution pH 8.00 (boric acid, sodium hydroxide, hydrogen chloride) and buffer solution pH 10.00 (boric acid, sodium hydroxide, hydrogen chloride) (all Merck), and purified water (Elga Option 4 water purifier).
Saturated solutions of free C21 (obtained from Syntagon AB, Södertälje, Sweden) were prepared in duplicates. The samples were kept magnetically stirred for 48 hours prior to analysis. For some samples, the added substance was dissolved and more was thereafter added to obtain saturated solutions.
After 48 hours, pH was measured and thereafter 1 mL of solution was withdrawn. Undissolved substance was removed by centrifugation (1500 rpm, 30 minutes). The supernatant was diluted 10 to 500 times with acetonitrile/H2O, 30:70.
C21 content was measured by HPLC.

[2] = Stability of aqueous solutions of C21 under four storage conditions (sensitivity to light); assay type: physicochemical; settings: for Amount of Free C21, % of initial / Solution pH: 1 mg/mL in 0.9% NaCl
Procedure: The stability of free C21 in 0.9% NaCl pH 9.4 was investigated.
Solutions of 1 mg/mL of C21 were studied for four weeks under four different storage conditions. The solution was filtered through a 0.22 sterile syringe filter to minimize bacterial growth during the stability test. The samples were analysed by HPLC for purity.
The results are summarised in Table 3 below, in which the amount of C21 is given as a percentage of the initial amount of drug. Solution pHs were also measured and are shown within parenthesis in Table 3.
The stability of the sodium salt of C21 was also investigated under the same storage conditions.
At the time for analysis of the one week samples, it was noted that the heating cabinet for storage of samples at 40° C. was broken. In view of this, these samples were thereafter kept at room temperature for three days.

solubility at 48 h ([1]; 0.9% NaCl, pH 7.3, saline or isotonic, vehicle 0.9% NaCl, pH 7.3): 120 µg/mL (≈ 252 µM)
solubility at 48 h ([1]; 0.9% NaCl, pH 8.3, saline or isotonic, vehicle 0.9% NaCl, pH 8.3 adjusted by NaOH, one sample): 1580 µg/mL (≈ 3320 µM)
solubility at 48 h ([1]; 0.9% NaCl, pH 9.7, saline or isotonic, vehicle 0.9% NaCl, pH 9.7 adjusted by NaOH): 27400 µg/mL (≈ 57600 µM)
solubility at 48 h ([1]; 0.9% NaCl/EtOH 95:5 v/v, pH 7.9, aqueous with cosolvent or surfactant or cyclodextrin, vehicle 0.9% NaCl/EtOH 95:5 v/v, pH 7.9, one sample): 570 µg/mL (≈ 1200 µM)
solubility at 48 h ([1]; PBS pH 7.4, pH 7.7, aqueous buffer, vehicle Buffer/PBS pH 7.4, measured pH 7.7): 240 µg/mL (≈ 505 µM)
solubility at 48 h ([1]; PEG/EtOH/H2O (40:10:50), pH 6.1, aqueous with cosolvent or surfactant or cyclodextrin, vehicle PEG/EtOH/H2O (40:10:50), pH 6.1): 830 µg/mL (≈ 1750 µM)
solubility at 48 h ([1]; PEG/H2O (25:75), pH 5.5, aqueous with cosolvent or surfactant or cyclodextrin, vehicle PEG/H2O (25:75), pH 5.5): 170 µg/mL (≈ 357 µM)
solubility at 48 h ([1]; PEG/H2O (50:50), pH 6.2, aqueous with cosolvent or surfactant or cyclodextrin, vehicle PEG/H2O (50:50), pH 6.2): 610 µg/mL (≈ 1280 µM)
solubility at 48 h ([1]; PG/EtOH/H2O (40:10:50), pH 6.3, aqueous with cosolvent or surfactant or cyclodextrin, vehicle PG/EtOH/H2O (40:10:50), pH 6.3): 790 µg/mL (≈ 1660 µM)
solubility at 48 h ([1]; PG/H2O (10:90), pH 7.5, aqueous with cosolvent or surfactant or cyclodextrin, vehicle PG/H2O (10:90), pH 7.5): 220 µg/mL (≈ 463 µM)
solubility at 48 h ([1]; PG/H2O (25:75), pH 6.9, aqueous with cosolvent or surfactant or cyclodextrin, vehicle PG/H2O (25:75), pH 6.9): 300 µg/mL (≈ 631 µM)
solubility at 48 h ([1]; boric acid buffer pH 8.0, pH 7.9, aqueous buffer, vehicle Buffer/Boric acid pH 8.0, measured pH 7.9): 500 µg/mL (≈ 1050 µM)
solubility at 48 h ([1]; boric acid buffer pH 10.0, pH 8.7, aqueous buffer, vehicle Buffer/Boric acid pH 10.0, measured pH 8.7): 19100 µg/mL (≈ 40200 µM)
solubility at 48 h ([1]; citric acid buffer pH 2.0, pH 2.3, aqueous buffer, vehicle Buffer/Citric acid pH 2.0, measured pH 2.3): 3950 µg/mL (≈ 8300 µM)
solubility at 48 h ([1]; citric acid buffer pH 4.0, pH 4, aqueous buffer, vehicle Buffer/Citric acid pH 4.0, measured pH 4.0): 80 µg/mL (≈ 168 µM)
solubility at 48 h ([1]; citric acid buffer pH 6.0, pH 6, aqueous buffer, vehicle Buffer/Citric acid pH 6.0, measured pH 6.0): 60 µg/mL (≈ 126 µM)
Concentration (solubility) ([1]; vehicle Buffer/Boric acid pH 10.0, measured pH 8.7): 19.90 mg/mL
solubility at 48 h ([1]; water, pH 7.3, water, vehicle H2O, pH 7.3, stirred 48 hours): 150 µg/mL (≈ 315 µM)
Amount of Free C21, % of initial ([2]; 5° C., dark, 1 week): 101 % of initial
Solution pH ([2]; 5° C., dark, 1 week): (9.2)
Amount of Free C21, % of initial ([2]; 5° C., dark, 2 weeks): 107 % of initial
Solution pH ([2]; 5° C., dark, 2 weeks): (9.2)
Amount of Free C21, % of initial ([2]; 5° C., dark, 3 weeks): 108 % of initial
Solution pH ([2]; 5° C., dark, 3 weeks): (9.1)
Amount of Free C21, % of initial ([2]; 5° C., dark, 4 weeks): 108 % of initial
Solution pH ([2]; 5° C., dark, 4 weeks): (9.2)
Amount of Free C21, % of initial ([2]; 5° C., dark, Initial): 100 % of initial
Solution pH ([2]; 5° C., dark, Initial): (9.4)
Amount of Free C21, % of initial ([2]; 40° C., dark, 1 week): 101 % of initial
Solution pH ([2]; 40° C., dark, 1 week): (9.0)
Amount of Free C21, % of initial ([2]; 40° C., dark, 2 weeks): 111 % of initial
Solution pH ([2]; 40° C., dark, 2 weeks): (8.6)
Amount of Free C21, % of initial ([2]; 40° C., dark, 3 weeks): 106 % of initial
Solution pH ([2]; 40° C., dark, 3 weeks): (8.7)
Amount of Free C21, % of initial ([2]; 40° C., dark, 4 weeks): 107 % of initial
Solution pH ([2]; 40° C., dark, 4 weeks): (8.7)
Amount of Free C21, % of initial ([2]; 40° C., dark, Initial): 100 % of initial
Solution pH ([2]; 40° C., dark, Initial): (9.4)
Amount of Free C21, % of initial ([2]; RT, dark, 1 week): 97 % of initial
Solution pH ([2]; RT, dark, 1 week): (9.2)
Amount of Free C21, % of initial ([2]; RT, dark, 2 weeks): 109 % of initial
Solution pH ([2]; RT, dark, 2 weeks): (8.9)
Amount of Free C21, % of initial ([2]; RT, dark, 3 weeks): 105 % of initial
Solution pH ([2]; RT, dark, 3 weeks): (9.0)
Amount of Free C21, % of initial ([2]; RT, dark, 4 weeks): 106 % of initial
Solution pH ([2]; RT, dark, 4 weeks): (8.9)
Amount of Free C21, % of initial ([2]; RT, dark, Initial): 100 % of initial
Solution pH ([2]; RT, dark, Initial): (9.4)
Amount of Free C21, % of initial ([2]; RT, light, 1 week): 96 % of initial
Solution pH ([2]; RT, light, 1 week): (9.0)
Solution pH ([2]; RT, light, 2 weeks): (8.0)
Amount of Free C21, % of initial ([2]; RT, light, 2 weeks, precipitation, filtered): 44 % of initial
Amount of Free C21, % of initial ([2]; RT, light, 3 weeks): 96 % of initial
Solution pH ([2]; RT, light, 3 weeks): (8.5)
Solution pH ([2]; RT, light, 4 weeks): (7.7)
Amount of Free C21, % of initial ([2]; RT, light, 4 weeks, precipitation, filtered): 13 % of initial
Amount of Free C21, % of initial ([2]; RT, light, Initial): 100 % of initial
Solution pH ([2]; RT, light, Initial): (9.4)
total impurity peak area ([2]; samples stored at 5° C., RT/dark and 40° C.): around 2.5 area% of C21 peak area
chemical stability in aqueous solution ([2]; stored in dark at 5° C., RT and 40° C., four weeks): chemically stable
SMILES: CCCCOC(=O)NS(=O)(=O)c1sc(CC(C)C)cc1-c1ccc(Cn2ccnc2)cc1 [free C21, N-butyloxycarbonyl-3-(4-imidazol-1-ylmethylphenyl)-5-iso-butylthiophene-2-sulfonamide]
